This is an account of results in ChEMBL document CHEMBL1133931, “Anti-AIDS agents. Part 47: Synthesis and anti-HIV activity of 3-substituted 3',4'-Di-O-(S)-camphanoyl-(3'R,4'R)-(+)-cis-khellactone derivatives” (Bioorg Med Chem Lett, 2001).

One may read the EC50 as the concentration at which the effect is half-maximal. Read a low EC50 as a more potent agent. As a reminder, the IC50 is the point on the concentration scale where inhibition reaches its midpoint. Lower therefore signals inhibition by little substance.

Data set [1] is described as follows: Therapeutic index (IC50/EC50) of compound was determined in acutely infected H9 cell. Type of data set: cell-based. The following applies: human, acutely infected H9 cells; read-out: TI.
For data set [2], the system named is H9. As to the kind of experiment: Inhibitory concentration against HIV-1 replication in acutely infected H9 lymphocytes. Particulars: Homo sapiens. Type of data set: functional, cell-based.
The test system of data set [3] is H9. Description: Inhibitory concentration required to inhibit uninfected H9 cell growth by 50%. Type of data set: functional, cell-based. The following applies: Homo sapiens.

`CC1(C)Oc2ccc3ccc(=O)oc3c2[C@@H](OC(=O)C23CCC(C)(C(=O)O2)C3(C)C)[C@H]1OC(=O)C12CCC(C)(C(=O)O1)C2(C)C` (stereo partly drawn): the selectivity ratio in data set [1] came out at 137000.

Regarding `CCN(CC)Cc1cc2ccc3c(c2oc1=O)[C@@H](OC(=O)C12CCC(C)(C(=O)O1)C2(C)C)[C@@H](OC(=O)C12CCC(C)(C(=O)O1)C2(C)C)C(C)(C)O3` (stereo partly drawn), in the data set on H9 [2], the EC50 amounted to 0.69 µM. The compound also showed an IC50 with H9 [3] of 43 µM. Moreover, the selectivity ratio in data set [1] came to 62.

With `CC1(C)Oc2ccc3cc(C(Br)Br)c(=O)oc3c2[C@@H](OC(=O)C23CCC(C)(C(=O)O2)C3(C)C)[C@H]1OC(=O)C12CCC(C)(C(=O)O1)C2(C)C` (stereo partly drawn), the EC50 in the data set on H9 [2] is 0.000119 µM. Besides, the IC50 in the data set on H9 [3] was determined as 3.2 µM. Moreover, in data set [1], the selectivity ratio amounted to 26900.

`CC1(C)Oc2ccc3cc(CO)c(=O)oc3c2[C@@H](OC(=O)C23CCC(C)(C(=O)O2)C3(C)C)[C@H]1OC(=O)C12CCC(C)(C(=O)O1)C2(C)C` (stereo partly drawn) came in with an EC50 in the data set with H9 [2] of 0.000188 µM. Besides, inhibition in the data set with H9 [3] was half-maximal at 35.4 µM (IC50). Besides, the selectivity ratio in data set [1] was 188000.

The compound `CC1(C)Oc2ccc3cc(CBr)c(=O)oc3c2[C@@H](OC(=O)C23CCC(C)(C(=O)O2)C3(C)C)[C@H]1OC(=O)C12CCC(C)(C(=O)O1)C2(C)C` (stereo partly drawn) returned an EC50 in the data set with H9 [2] of 0.0854 µM. The compound also had an IC50 with H9 [3] of 3.38 µM. The selectivity ratio in data set [1] came out at 40.

For `CC1(C)Oc2ccc3cc(CN)c(=O)oc3c2[C@@H](OC(=O)C23CCC(C)(C(=O)O2)C3(C)C)[C@H]1OC(=O)C12CCC(C)(C(=O)O1)C2(C)C` (stereo partly drawn), in the data set on H9 [2], the EC50 was 0.39 µM. The compound further came in with an IC50 in the data set with H9 [3] of 32.8 µM.

`CC(=O)OCc1cc2ccc3c(c2oc1=O)[C@@H](OC(=O)C12CCC(C)(C(=O)O1)C2(C)C)[C@@H](OC(=O)C12CCC(C)(C(=O)O1)C2(C)C)C(C)(C)O3` (stereo partly drawn) came in with an EC50 in the data set on H9 [2] of 0.00103 µM. In the data set with H9 [3], the IC50 turned out to be 3.34 µM. The selectivity ratio in data set [1] came to 3240.
